Data on 14 compounds can be found in patent US9540366B2, “Ring-fused heterocyclic compound” (Kyowa Hakko Kirin Co., Ltd., priority 2012, dated 2017).

Experiment [1] concerns morphine-induced pruritus mice. The experiment can be described thus: Inhibitory effect for pruritus in morphine-induced pruritus mice. It counts as in vivo. The settings on record: given 30 minutes or 1 hour before intrathecal morphine, scratching counted for 30 minutes, male ddY mice. The method, then: Inhibitory Effect for Pruritus in Morphine-Induced Pruritus Mice
Morphine (1 nmol/5 μL, dissolved in physiological saline) or physiological saline was intrathecally administered between the fifth and sixth lumbar vertebrae of male ddY mice using a microsyringe fitted with a 30-gauge injection needle. Mice to which only morphine was administered were referred to as a control group, and mice to which only physiological saline was administered were referred to as a physiological saline-administered group.
The number of scratching behavior with the hind legs which began to be observed immediately after the morphine administration was measured for 30 minutes. Because mice show continuous scratching actions in each scratching behavior, a series of such actions was counted as a single scratching behavior.
Each test compound was administered 30 minutes or 1 hour before the morphine administration. The test compound was suspended in a 0.5% methylcellulose solution and was prepared plural administration solutions of different concentrations, and each of them was orally administered in a volume of 10 mL/kg.

The target in experiment [2] is T1, human Cav3.2 T-type Ca2+ channel (Homo sapiens, UniProt O95180).
T1 construct: expressed in transfected cells; host or cells: KJMGER8 cells (Namalwa cell-derived cell line)
T1 sequence (O95180 whole entry): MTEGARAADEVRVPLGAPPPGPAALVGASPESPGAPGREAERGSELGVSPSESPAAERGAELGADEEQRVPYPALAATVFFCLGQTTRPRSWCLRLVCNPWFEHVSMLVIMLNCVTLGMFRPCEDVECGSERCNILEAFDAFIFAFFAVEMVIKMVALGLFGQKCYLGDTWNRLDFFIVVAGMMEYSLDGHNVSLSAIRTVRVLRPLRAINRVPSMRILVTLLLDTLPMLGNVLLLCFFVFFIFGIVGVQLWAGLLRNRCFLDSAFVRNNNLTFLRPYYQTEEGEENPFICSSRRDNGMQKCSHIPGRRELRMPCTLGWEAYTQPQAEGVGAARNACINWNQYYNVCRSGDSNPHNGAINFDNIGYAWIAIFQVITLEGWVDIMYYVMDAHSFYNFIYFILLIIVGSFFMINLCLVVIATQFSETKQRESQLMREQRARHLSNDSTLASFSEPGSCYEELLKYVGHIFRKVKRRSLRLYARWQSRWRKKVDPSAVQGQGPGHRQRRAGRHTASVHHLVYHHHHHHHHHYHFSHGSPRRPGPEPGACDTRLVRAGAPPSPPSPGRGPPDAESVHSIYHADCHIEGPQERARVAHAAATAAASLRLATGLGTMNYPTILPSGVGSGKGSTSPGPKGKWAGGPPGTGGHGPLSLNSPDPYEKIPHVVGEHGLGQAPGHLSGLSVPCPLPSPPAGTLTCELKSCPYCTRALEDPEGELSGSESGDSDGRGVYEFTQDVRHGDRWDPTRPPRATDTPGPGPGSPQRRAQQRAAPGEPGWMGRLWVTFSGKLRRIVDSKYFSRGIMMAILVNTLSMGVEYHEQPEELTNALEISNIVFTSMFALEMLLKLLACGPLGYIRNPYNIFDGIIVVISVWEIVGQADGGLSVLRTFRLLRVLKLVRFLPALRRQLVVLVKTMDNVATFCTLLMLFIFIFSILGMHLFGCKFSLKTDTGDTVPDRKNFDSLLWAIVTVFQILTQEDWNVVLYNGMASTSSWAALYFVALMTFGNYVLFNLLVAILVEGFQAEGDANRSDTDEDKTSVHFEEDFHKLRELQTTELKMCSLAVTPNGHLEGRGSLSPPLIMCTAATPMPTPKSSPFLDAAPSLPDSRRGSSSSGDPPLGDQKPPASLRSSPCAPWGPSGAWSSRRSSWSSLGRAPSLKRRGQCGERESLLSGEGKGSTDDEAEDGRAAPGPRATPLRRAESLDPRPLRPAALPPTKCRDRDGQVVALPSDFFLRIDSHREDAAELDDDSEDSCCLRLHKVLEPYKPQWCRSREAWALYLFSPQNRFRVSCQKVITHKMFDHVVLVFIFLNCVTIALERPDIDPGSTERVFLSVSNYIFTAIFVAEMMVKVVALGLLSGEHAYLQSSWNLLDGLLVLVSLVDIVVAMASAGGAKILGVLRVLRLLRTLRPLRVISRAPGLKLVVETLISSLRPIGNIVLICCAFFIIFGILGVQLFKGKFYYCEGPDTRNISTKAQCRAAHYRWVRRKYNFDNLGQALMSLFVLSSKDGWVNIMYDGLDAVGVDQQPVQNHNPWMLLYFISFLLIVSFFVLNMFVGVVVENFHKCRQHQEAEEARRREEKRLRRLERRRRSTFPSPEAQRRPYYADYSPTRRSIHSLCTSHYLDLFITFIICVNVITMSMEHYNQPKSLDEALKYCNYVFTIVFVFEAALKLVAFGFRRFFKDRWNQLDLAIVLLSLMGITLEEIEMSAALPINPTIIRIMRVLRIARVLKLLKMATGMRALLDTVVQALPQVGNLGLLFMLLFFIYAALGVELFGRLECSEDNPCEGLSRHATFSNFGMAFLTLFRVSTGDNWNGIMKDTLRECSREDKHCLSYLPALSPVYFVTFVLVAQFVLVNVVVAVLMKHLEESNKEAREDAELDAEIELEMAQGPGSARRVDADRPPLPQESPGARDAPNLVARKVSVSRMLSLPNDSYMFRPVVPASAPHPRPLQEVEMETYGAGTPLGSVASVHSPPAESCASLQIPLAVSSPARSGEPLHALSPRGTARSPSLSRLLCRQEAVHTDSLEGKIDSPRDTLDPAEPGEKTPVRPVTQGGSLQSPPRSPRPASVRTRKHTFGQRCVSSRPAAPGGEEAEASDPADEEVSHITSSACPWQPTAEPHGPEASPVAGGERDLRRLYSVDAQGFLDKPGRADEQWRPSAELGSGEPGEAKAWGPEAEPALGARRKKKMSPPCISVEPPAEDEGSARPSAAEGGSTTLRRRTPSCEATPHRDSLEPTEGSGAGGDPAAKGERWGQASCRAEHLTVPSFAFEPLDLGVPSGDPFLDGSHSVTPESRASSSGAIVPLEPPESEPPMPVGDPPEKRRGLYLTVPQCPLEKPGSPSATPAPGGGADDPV
The experiment can be described thus: Inhibitory effect for intracellular calcium response via Cav3.2 T-type Ca2+ channels (FLIPR Calcium 3 Assay Kit). The class given is cell-based.

[3] abbreviates: human Cav3.2-expressing KJMGER8 cells (Namalwa-derived), calcium response induced by 5 mmol/L CaCl2, 3 μmol/L mibefradil as reference, read-out: IC50 for the human Cav3.2 T-type Ca2+ current.

Read-outs that look alike come from different tables or passages of the source.

For the compound `N#Cc1cc(C(=O)N[C@H]2C[C@@H]3CC[C@H]2O3)cc2nc(C(F)(F)F)c(CC3CCC(F)(F)CC3)n12` [Compound 178, N-[(1R,2S,4S)-7-Oxabicyclo[2.2.1]heptan-2-yl]-5-cyano-3-[(4,4-difluorocyclohexyl)methyl]-2-(trifluoromethyl)imidazo[1,2-a]pyridine-7-carboxamide], the “inhibition of the increase of the scratching behavior in morphine-induced pruritus mice” value in experiment [1] (oral dose of 10 mg/kg or less) is listed as “inhibited the increase of the scratching behavior”. The IC50 in experiment [2] (setting [3]) is ≤ 100 nM.
Regarding `COC(C)(C)CNC(=O)c1cc(C#N)n2c(CC3CCC(F)(F)CC3)c(C(C)(F)F)nc2c1` [Compound 164, 5-Cyano-3-[(4,4-difluorocyclohexyl)methyl]-2-(1,1-difluoroethyl)-N-(2-methoxy-2-methylpropyl)imidazo[1,2-a]pyridine-7-carboxamide], the “inhibition of the increase of the scratching behavior in morphine-induced pruritus mice” value in experiment [1] (oral dose of 10 mg/kg or less) is listed as “inhibited the increase of the scratching behavior”. The half-maximal inhibitory concentration (IC50) in experiment [2] was ≤ 100 nM.
Turning to `[2H]C([2H])([2H])OC(C)(C)CNC(=O)c1cc2nc(C(C)(F)F)c(CC3CCC(F)(F)CC3)n2c(C#N)c1C` [Compound 190, 5-Cyano-3-[(4,4-difluorocyclohexyl)methyl]-2-(1,1-difluoroethyl)-N-(2-methoxy-d3-2-methylpropyl)-6-methylimidazo[1,2-a]pyridine-7-carboxamide], in experiment [1] (oral dose of 10 mg/kg or less), the “inhibition of the increase of the scratching behavior in morphine-induced pruritus mice” value is listed as “inhibited the increase of the scratching behavior”. Besides, in experiment [2], the 50% inhibitory concentration (IC50) is ≤ 100 nM.
In the case of `COC(C)(C)CNC(=O)c1cc(C#N)n2c(CC3CCC(F)(F)CC3)c(C(F)(F)F)nc2c1` [Compound 55, 5-Cyano-3-[(4,4-difluorocyclohexyl)methyl]-N-(2-methoxy-2-methylpropyl)-2-(trifluoromethyl)imidazo[1,2-a]pyridine-7-carboxamide], the “inhibition of the increase of the scratching behavior in morphine-induced pruritus mice” value in experiment [1] (oral dose of 30 mg/kg or less) is “inhibited the increase of the scratching behavior”. Besides, the IC50 in experiment [2] was ≤ 100 nM.
Take `N#Cc1cc(C(=O)NCC2CC2)cc2nc(C(F)(F)F)c(CC3CCC(F)(F)CC3)n12` [Compound 53, 5-Cyano-N-(cyclopropylmethyl)-3-[(4,4-difluorocyclohexyl)methyl]-2-(trifluoromethyl)imidazo[1,2-a]pyridine-7-carboxamide]: the “inhibition of the increase of the scratching behavior in morphine-induced pruritus mice” value in experiment [1] (oral dose of 30 mg/kg or less) is on record as “inhibited the increase of the scratching behavior”. Besides, the IC50 in experiment [2] (setting [3]) was ≤ 100 nM.
On to `Cc1c(C(=O)NC2CCOCC2)cc2nc(C(F)(F)F)c(CC3CCC(F)(F)CC3)n2c1C#N` [Compound 181, 5-Cyano-3-[(4,4-difluorocyclohexyl)methyl]-6-methyl-N-(tetrahydro-2H-pyran-4-yl)-2-(trifluoromethyl)imidazo[1,2-a]pyridine-7-carboxamide], for which the “inhibition of the increase of the scratching behavior in morphine-induced pruritus mice” value in experiment [1] (oral dose of 10 mg/kg or less) is “inhibited the increase of the scratching behavior”. Besides, the IC50 in experiment [2] (setting [3]) is ≤ 100 nM.
For the compound `COC(C)(C)CNC(=O)c1cc2nc(C(F)(F)F)c(CC3CCC(F)(F)CC3)n2c(C#N)c1Cl` [Compound 173, 6-Chloro-5-cyano-3-[(4,4-difluorocyclohexyl)methyl]-N-(2-methoxy-2-methylpropyl)-2-(trifluoromethyl)imidazo[1,2-a]pyridine-7-carboxamide], in experiment [1] (oral dose of 10 mg/kg or less), the “inhibition of the increase of the scratching behavior in morphine-induced pruritus mice” value is “inhibited the increase of the scratching behavior”. Moreover, in experiment [2], the IC50 is ≤ 100 nM.
Consider `N#CC1(CNC(=O)c2cc(Cl)n3c(CC4CCC(F)(F)CC4)c(C(F)(F)F)nc3c2)CC1` [Compound 176, 5-Chloro-N-[(1-cyanocyclopropyl)methyl]-3-[(4,4-difluorocyclohexyl)methyl]-2-(trifluoromethyl)imidazo[1,2-a]pyridine-7-carboxamide], for which, in experiment [1] (oral dose of 10 mg/kg or less), the “inhibition of the increase of the scratching behavior in morphine-induced pruritus mice” value is “inhibited the increase of the scratching behavior”. For the same compound, the IC50 in experiment [2] (setting [3]) is ≤ 100 nM.
In the case of `N#Cc1cc(C(=O)NC2CCOCC2)cc2nc(C(F)(F)F)c(CC3CCC(F)(F)CC3)n12` [Compound 40], the “inhibition of the increase of the scratching behavior in morphine-induced pruritus mice” value in experiment [1] (oral dose of 30 mg/kg or less) is “inhibited the increase of the scratching behavior”. Besides, in experiment [2], the 50% inhibitory concentration (IC50) is ≤ 100 nM.
`Cc1c(C(=O)NC2CCOCC2)cc2nc(C(C)(F)F)c(CC3CCC(F)(F)CC3)n2c1C#N` [Compound 185, 5-Cyano-3-[(4,4-difluorocyclohexyl)methyl]-2-(1,1-difluoroethyl)-6-methyl-N-(tetrahydro-2H-pyran-4-yl)imidazo[1,2-a]pyridine-7-carboxamide]: the “inhibition of the increase of the scratching behavior in morphine-induced pruritus mice” value in experiment [1] (oral dose of 10 mg/kg or less) is “inhibited the increase of the scratching behavior”. The half-inhibitory concentration (IC50) in experiment [2] is ≤ 100 nM.
Regarding `CC(C)(CNC(=O)c1cc(C#N)n2c(CC3CCC(F)(F)CC3)c(C(F)(F)F)nc2c1)S(C)(=O)=O` [Compound 189, 5-Cyano-3-[(4,4-difluorocyclohexyl)methyl]-N-[2-methyl-2-(methylsulfonyl)propyl]-2-(trifluoromethyl)imidazo[1,2-a]pyridine-7-carboxamide], the “inhibition of the increase of the scratching behavior in morphine-induced pruritus mice” value in experiment [1] (oral dose of 10 mg/kg or less) is listed as “inhibited the increase of the scratching behavior”. In experiment [2] (setting [3]), the IC50 was ≤ 100 nM.
With `CN(C)CC(C)(C)CNC(=O)c1cc(C#N)n2c(CC3CCC(F)(F)CC3)c(C(F)(F)F)nc2c1` [Compound 182, 5-Cyano-3-[(4,4-difluorocyclohexyl)methyl]-N-[3-(dimethylamino)-2,2-dimethylpropyl]-2-(trifluoromethyl)imidazo[1,2-a]pyridine-7-carboxamide], in experiment [1] (oral dose of 10 mg/kg or less), the “inhibition of the increase of the scratching behavior in morphine-induced pruritus mice” value was “inhibited the increase of the scratching behavior”. In addition, in experiment [2] (setting [3]), the IC50 is ≤ 100 nM.
On to `CC(C)c1nc2cc(C(=O)N[C@H]3C[C@@H]4CC[C@H]3O4)cc(C#N)n2c1CC1CCC(F)(F)CC1` [Compound 180, N-[(1R,2S,4S)-7-Oxabicyclo[2.2.1]heptan-2-yl]-5-cyano-3-[(4,4-difluorocyclohexyl)methyl]-2-isopropylimidazo[1,2-a]pyridine-7-carboxamide], for which the “inhibition of the increase of the scratching behavior in morphine-induced pruritus mice” value in experiment [1] (oral dose of 10 mg/kg or less) is on record as “inhibited the increase of the scratching behavior”. Moreover, in experiment [2], the half-inhibitory concentration (IC50) is ≤ 100 nM.
Regarding `COC(C)(C)CNC(=O)c1cc2nc(C(C)(F)F)c(CC3CCC(F)(F)CC3)n2c(C#N)c1C` [Compound 184, 5-Cyano-3-[(4,4-difluorocyclohexyl)methyl]-2-(1,1-difluoroethyl)-N-(2-methoxy-2-methylpropyl)-6-methylimidazo[1,2-a]pyridine-7-carboxamide], in experiment [1] (oral dose of 10 mg/kg or less), the “inhibition of the increase of the scratching behavior in morphine-induced pruritus mice” value is reported as “inhibited the increase of the scratching behavior”. Besides, in experiment [2], the 50% inhibitory concentration (IC50) was ≤ 100 nM.
